In PMC4807051, “Determinants of Cofactor Specificity for the Glucose-6-Phosphate Dehydrogenase from Escherichia coli: Simulation, Kinetics and Evolutionary Studies” (PLoS ONE, 2016):

Legend:
[1] = biological target: T1, EcG6PDH; glucose-6-phosphate dehydrogenase from Escherichia coli (Escherichia coli, UniProt P0AC53, R50A); assay: NAD(P)H formation at […] nm, Michaelis-Menten fit; assay type: biochemical; conditions: co-substrate NADP+ at 10 times its KM; 25°C
T1 construct: gene zwf; full length; N-terminal 6xHis tag cut by TEV protease (Gly-His left before Met1); plasmid pET-TEV-EcG6PDH from pETG6PDH

[2] = biological target: T2, EcG6PDH; glucose-6-phosphate dehydrogenase from Escherichia coli (Escherichia coli, UniProt P0AC53, K18A); assay: NAD(P)H formation at […] nm, Michaelis-Menten fit; assay type: biochemical; conditions: co-substrate NADP+ at 10 times its KM; 25°C
T2 construct: gene zwf; full length; N-terminal 6xHis tag cut by TEV protease (Gly-His left before Met1); plasmid pET-TEV-EcG6PDH from pETG6PDH

O=P(O)(O)OC[C@H]1OC(O)[C@H](O)[C@@H](O)[C@@H]1O (some centres unmarked) [G6P]
apparent KM [1]: we determined the effect of the mutations on the apparent kinetic parameters for G6P | apparent KM [2]: we determined the effect of the mutations on the apparent kinetic parameters for G6P
